Data: patent US20080119571A1, “COMPOSITIONS AND METHODS TO ENHANCE REVERSE CHOLESTEROL TRANSPORT” (REDDY US THERAPEUTICS, INC., priority 2006, published 2008)
Entries after “also recorded” stand apart in the source; their conditions may differ.

How the values were obtained:
[1] = system: SR-B1; test: SR-B1 gene expression in LDL-r null mouse liver, real time PCR; format: in vivo
Method: (§1) To determine if a test compound was capable of upregulating these three RCT pathway genes, LDL-r mice were treated with vehicle alone (control) or vehicle containing a defined amount of a test compound termed, “compound A”.
(§2) LDL-r mice were chosen because they are prone to develop atherosclerosis. After 7 days of treatment, the three RCT pathway genes were quantitated using real time PCR. […] Thus, compound A coordinately up regulated the three RCT pathway genes, namely ABCA1, LCAT, and SRB1.
(§3) This example illustrates the effect of compound A on HDL and the ABCA1, SR-B1 and LCAT genes associated with RCT in LDL-receptor (LDLr) null mice in a short term model.
(§4) Eight-weeks-old LDLr mice (Jackson Laboratories, Bar Harbor, Me.), were used for this Example. Mice were distributed into two groups of 8 mice each. One group received vehicle containing carboxymethyl cellulose and Tween-80 (Sigma Chemical Co.), and the other group received a daily dose of compound A at 25 mg/kg. […]
(§5) Next, liver and aorta samples from vehicle and compound A treated mice were removed, flash frozen in liquid nitrogen and subsequently used for RNA isolation. […] RNA was then verified and quantified using the Agilent RNA 600 Nano Assay Labchip® system, and real time PCR was performed to quantitate the gene expression of SR-B1, ABCA1 and LCAT using validated primer sets from SuperArray. […]

[2] = system: ABCA1; test: ABCA1 expression in HepG2 liver cells, real time PCR; format: cell-based, human; details: HepG2, treated overnight
Method: (§6) The hepatoma cell line HepG2 are frequently used as in vitro models of liver cells. They are easy to culture and retain many properties of liver cells including expression of various genes involved in lipid metabolism.
(§7) This example illustrates the effect of compound A on genes associated with RCT in HepG2 cells.
(§8) Human HepG2 cells were cultured in DMEM containing 4500 mg glucose/L (ATCC) supplemented with 10% fetal bovine serum (FBS), penicillin (100 U/ml), and streptomycin (100 μg/ml) in a humidified atmosphere (5% CO2 in air) at 37° C. Cells were plated onto 12 well dishes and cultured in low serum (0.5% FBS) for experiments. Cells were treated with either vehicle (DMSO) or the test compound overnight and used for RNA isolation. Briefly, cells were lysed in 300 uL of lysis buffer (Qiagen) and placed in the TissueLyser (Qiagen) for 3 minutes. Samples were then processed as described by the RNeasy mini kit. RNA was then verified and quantified using the Agilent RNA 600 Nano Assay Labchip® system, and real time PCR was performed to quantitate gene expression using validated primer sets from SuperArray. The results were illustrated in FIGS. 8-9.

[3] = system: ABCA1; test: ABCA1 gene expression in LDL-r null mouse liver, real time PCR; format: in vivo
Method: as §1, §2, §3
Eight-weeks-old LDLr mice (Jackson Laboratories, Bar Harbor, Me.), were used for this Example. Mice were distributed into two groups of 8 mice each. […]
(§9) After one week, plasma samples were collected and used for HDL determination. Mice were euthanized by CO2, and aorta and liver samples were collected for RNA isolation.
as §5

[4] = system: SRB1; test: SRB1 expression in HepG2 liver cells, real time PCR; format: cell-based, human; details: HepG2, treated overnight
Method: as §6, §7, §8

[5] = system: SR-B1; test: SR-B1 expression in normal animals (rat liver), real time PCR; format: in vivo
Excerpt: (§10) After 7 days of treatment RCT pathway genes were quantitated using real time PCR.

[6] = system: ABCA1; test: ABCA1 expression in normal animals (rat liver), real time PCR; format: in vivo
Excerpt: as §10

[7] = system: LCAT; test: LCAT gene expression in LDL-r null mouse liver, real time PCR; format: in vivo
Method: as §1, §2, §3, §4, §5

[8] = system: atherosclerotic lesions; test: Atherosclerotic lesion area in LDLr null mice on Western Diet, long term model; format: in vivo, mouse; details: high fat diet, 25 mg/kg daily, 16 weeks
Excerpt: The atheroprotective effects of HDL to a large extent are attributed to its ability to remove cholesterol from macrophages present in atherosclerotic lesions to transport them to liver for excretion into bile. LDLr null mice develop atherosclerosis when fed a high fat diet. […] This example illustrates the effect of compound A on HDL and atherosclerosis in LDLr null mice in a long term model. Eight-weeks-old LDLr null mice (Jackson Laboratories, Bar Harbor, Me.), were used for these studies. Two groups of 8 mice each received a Western Diet (Research Diet incorporated, New Brunswick, N.J.; D12079B containing 0.1% cholesterol) for 2 weeks. Plasma samples were collected and used for lipid analysis. Mice were then distributed into two groups, one group received vehicle containing carboxymethyl cellulose and Tween-80 (Sigma Chemical Co.), and the other group received a daily dose of compound A at 25 mg/kg. Both groups were continued on the Western Diet for another 16 weeks. At the end of the 16 weeks, the mice were euthanized by CO2, and whole aortas (from aortic sinus to the beginning of iliac aorta) were isolated, and fixed in 10% paraformaldehyde. […] Images of whole aortas were obtained by microscopic digital camera, and the lesion area was determined by computer-assisted morphometry (Image Pro, Media cybermetics) as percentages of coverage in whole aorta. […]

[9] = Plasma HDL levels in LDLr null mice, short term model; format: in vivo, mouse; details: 7-day treatment
Excerpt: Upregulation of ABCA1 and LCAT also should result in the formation of HDL particles. Following 7-day treatment, compound A increased HDL levels by greater than 50% (FIG. 4).
as §3
Eight-weeks-old LDLr mice (Jackson Laboratories, Bar Harbor, Me.), were used for this Example. Mice were distributed into two groups of 8 mice each. One group received vehicle containing carboxymethyl cellulose and Tween-80 (Sigma Chemical Co.), and the other group received a daily dose of compound A at 25 mg/kg.
as §9

[10] = system: CAD; details: 4081 asymptomatic middle-aged men with primary dyslipidemia, 5 years; cited from earlier work
[11] = LDL-r mice, 10 and 25 mg/kg, 7 days of treatment, liver
[12] = normal animals, 10 and 25 mg/kg, 7 days of treatment

CC(=O)c1ccc(Nc2nc(-c3ccccc3)cc(N3CCC(O)CC3)n2)cc1 [compound A]
SRB1 expression in LDL-r null mouse liver [1]: induces | increase in SR-B1 expression compared to vehicle treated animals [1, 11]: 2-2.5 fold | ABCA1 expression in liver cells [2]: induces | ABCA1 expression in liver cells ([2]; listed as compound of Formula I): capable of increasing | ABCA1 expression in LDL-r null mouse liver [3]: induces | increase in ABCA1 expression compared to vehicle treated animals [3, 11]: 2-3 fold | SRB1 expression in liver cells [4]: capable of increasing | SRB1 expression in rat liver [5]: induces | increase in SR-B1 expression compared to vehicle treated animals [5, 12]: 2-4 fold | ABCA1 expression in rat liver [6]: induces | increase in ABCA1 expression compared to vehicle treated animals [6, 12]: 2-4 fold | LCAT expression in LDL-r null mouse liver [7]: induces | increase in LCAT expression ([7]; LDL-r mice, 7 days of treatment, liver): 30-90% | effect on atherosclerotic lesions [8]: inhibits atherosclerosis development; also recorded: significant decrease | increase in HDL levels [9]: greater than 50%

Cc1ccc(C)c(OCCCC(C)(C)C(=O)O)c1 [gemfibrozil]
decrease in CAD [10]: 34%
